Assay results: paper PMC9814205, “Targeting undruggable carbohydrate recognition sites through focused fragment library design” (Communications Chemistry, 2022)

Legend:
Type in all cases: binding
[1] = target: T1, LecA (Pseudomonas aeruginosa, UniProt Q05097); experiment: Competitive fluorescence polarization (FP) assay; details: for Inhibition in FP: compared to MeGal at 10 mM (16 h); for inhibition at 10000 µM: read-out: Inhibition in FP, compared to MeGal at 10 mM (16 h)
T1 construct: made in house
T1 sequence (Q05097 whole entry): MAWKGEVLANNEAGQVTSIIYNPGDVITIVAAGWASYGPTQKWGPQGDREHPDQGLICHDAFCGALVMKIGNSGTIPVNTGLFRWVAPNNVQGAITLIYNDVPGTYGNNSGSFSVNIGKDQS
Procedure: The FP assay was performed in a black 384-well plate (Greiner Bio-One, Germany, 781900) with the final volume of 20 µL as described previously. Briefly, 10 µL of a sample solution series (10–0.078 mM) in TBS buffer containing 10 mM Ca^2+ (TBS/Ca^2+-buffer) and 20% DMSO were added in technical triplicates to 10 µL LecA (40 µM) preincubated with a galactose-based Cy5 conjugate[68] (20 nM) in TBS/Ca^2+-buffer. […] The plate was sealed (EASYseal, Greiner Bio-One, 676,001), centrifuged (1 min, 1500 rpm, 25 °C) and incubated in a humidity chamber for 16 h. The fluorescence was measured with an excitation 590 nm and emission 675 nm filter[68] on a PheraStar FS plate reader (BMG Labtech GmbH, Germany). The blank signal of TBS/Ca^2+-buffer containing 10% DMSO was subtracted and the compounds were analyzed with the MARS Data Analysis Software (BMG Labtech GmbH Germany) using the four-parameter variable slope model. The top and bottom plateaus were defined according to the positive controls. The graphs were visualized using Graphpad Prism 5. The percentage (%) of inhibition was calculated at the highest concentration compared with 10 mM MeGal set to 100%.

[2] = target: T1, LecA; experiment: Competitive 19F T2-filtered NMR with reporter 5; details: 0.1 mM 5, 10 mM CaCl2, 3 mM competitor
Procedure: The analogs of 1 (5) and 58 (61) were used as fluorinated spy molecules in ^19F T2-filtered NMR experiments. Two samples containing 0.1 mM 5 or 61 alone or a 10 µM protein in TBS/EDTA buffer followed by addition of 10 mM CaCl2 and the carbohydrates: 1 mM MeGal (LecA), 1 mM MeFuc (LecB/BambL) and 30 mM D-mannose (DC-SIGN/Langerin). Similarly, 0.1 mM 5 was used to prioritize hydroxamate derivatives, where 3 mM analogs of 1 were added to the samples instead of the carbohydrates. The ^19F and ^19F T2-filtered spectra were recorded with 64 scans, a spectral width of 5 ppm, a transmitter offset at −155.5 ppm (5) and −155.5 ppm (61), the acquisition time of 0.8 s, 2 s relaxation time applying a T2-filter of 384 ms. All spectra were analyzed as described above.

[3] = target: T2, LecB (PA-IIL) (Pseudomonas aeruginosa, UniProt Q9HYN5); experiment: 1H-15N TROSY NMR with 15N LecB; details: 2 mM compound
T2 construct: made in house
T2 sequence (Q9HYN5 entry or part of it): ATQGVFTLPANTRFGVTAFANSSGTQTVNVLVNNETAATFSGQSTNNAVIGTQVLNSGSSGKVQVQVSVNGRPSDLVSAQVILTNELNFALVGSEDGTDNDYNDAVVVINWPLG
Procedure: The ^1H-^15N TROSY pulse sequence trosyf3gpphsi19 with 128 increments and 32 scans per increment was applied for 0.15 mM ^15N LecA and 0.07 mM LecB in HBS/Ca^2+ buffer (20 mM HEPES pH 7.4, 150 mM NaCl, 10 mM CaCl2, 10% D2O and 100 µM sodium trimethylsilylpropanesulfonate (DSS) as internal reference) at 310 K. The ^1H-^15N HSQC pulse sequence hsqcf3gpph19 with 128 increments and 8 scans per increment was applied for 0.1 mM ^15N DC-SIGN and Langerin CRD in HBS/Ca^2+ buffer at 298 K. For screening of 650 non-fluorinated fragments of the general library against ^15N LecA, a mix of 10 compounds at 1 mM each was combined with 0.15 mM ^15N LecA in HBS/Ca^2+ buffer (20 mM HEPES pH 7.4, 150 mM NaCl, 10 mM CaCl2, 10% D2O and 100 µM sodium trimethylsilylpropanesulfonate (DSS) as internal reference, whereas the fragments with the MBP scaffolds were validated separately at 1 mM. Similarly, 9 nonfluorinated fragments from the MBP library were screened against ^15N-labeled DC-SIGN, LecA and LecB. To validate the fragment binding to proteins, we recorded ^1H-^15N HSQC and TROSY NMR of proteins in the presence of DMSO as negative control and 2 mM fragments in HBS/Ca^2+ buffer. Natural ligands were used as positive controls at 1 mM MeGal, MeFuc and 30 mM D-mannose to LecA/LecB and DC-SIGN CRD/Langerin CRD, respectively. Titration experiments with ^15N-labeled DC-SIGN CRD or LecB were recorded in HBS/Ca^2+ buffer with 30 mM CaCl2 and 0.25 to 4–8 mM malonic acid derivatives. The Kd values were calculated according to the one-site-binding model in Origin(Pro) 2020b (OriginLab Corp., USA). […]
All data were processed with NMRpipe[65] and analyzed with CcpNmr analysis. […] The changes in chemical shift perturbations (CSPs) were calculated according to Eq. (2):2 △δ=1/2△δH2+α△δN^2 in which δ is the difference in chemical shift (in ppm) and α is an empirical weighting factor of 0.14 for all amino acid backbone resonances. […]

[4] = target: T3, 5FW LecA (PA-IL) (Pseudomonas aeruginosa, UniProt Q05097); experiment: PrOF NMR with 5-fluorotryptophan-labeled LecA
T3 construct: made in house
T3 sequence (Q05097 2-122): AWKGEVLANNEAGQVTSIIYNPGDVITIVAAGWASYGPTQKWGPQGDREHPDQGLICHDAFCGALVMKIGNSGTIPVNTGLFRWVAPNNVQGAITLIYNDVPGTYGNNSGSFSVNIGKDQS
Procedure: PrOF NMR was performed as reported previously. Briefly, 150 µM 5FW LecA was recorded alone and in the presence of DMSO or 2–4 mM compounds in TBS/Ca^2+ buffer. The difference in chemical shift perturbations of W42 in 5FW LecA free vs bound forms was followed to determine Kd values of compounds. The Kd values were calculated according to the one-site-binding model in Origin(Pro) 2020b (OriginLab Corp., USA) from two or three independent titrations. Ligand efficiency values were calculated according to Eq. (1) for a temperature of 310 K.

[5] = target: T1, LecA; experiment: SPR with immobilized LecA; details: compounds at 0.2 and 1 mM
Procedure: All experiments were performed on a BIACORE X100 instrument (GE Healthcare) at 25 °C in phosphate-buffered saline (10 mM phosphate buffer pH 7.4, 2.7 mM KCl, 137 mM NaCl, 0.05% Tween-20, 100 µM CaCl2, 5% DMSO). LecA was immobilized onto a CM7 chip (BIACORE) following standard amine coupling procedures. The CM7 chip was activated by three injections of a NHS/EDC mixture with a contact time of 540 s at a flow rate of 10 µL min^−1 until the response exceeded 800 RU, followed by multiple injections of LecA dissolved in 10 mM sodium acetate pH 4.5 (100 µg/mL) onto channel 2 (contact time of 540 s at a flow rate of 10 µL min^−1). A minimum of 10,000 RU of LecA was captured onto the chip. Initial binding screens were performed with the injections of 0.2 and 1 mM of each hydroxamate (association 30 s, dissociation 60 s, 30 µL min^−1 flow rate), to identify the initial binders eliciting dose-response behaviors. Injection of the positive control (0.1 mM 4-Nitrophenyl-β-D-galactoside) was included after every forth injection cycle to monitor the activity of immobilized LecA throughout the binding screen experiments. All data evaluation was performed using BIACORE X100 evaluation software (v.2.0).

[6] = target: T4, 15N LecA (Pseudomonas aeruginosa, UniProt Q05097); experiment: 1H-15N TROSY NMR with 15N LecA
T4 construct: made in house
T4 sequence (Q05097 whole entry): as the sequence (Q05097 whole entry) above
Procedure: The ^1H-^15N TROSY pulse sequence trosyf3gpphsi19 with 128 increments and 32 scans per increment was applied for 0.15 mM ^15N LecA and 0.07 mM LecB in HBS/Ca^2+ buffer (20 mM HEPES pH 7.4, 150 mM NaCl, 10 mM CaCl2, 10% D2O and 100 µM sodium trimethylsilylpropanesulfonate (DSS) as internal reference) at 310 K. The ^1H-^15N HSQC pulse sequence hsqcf3gpph19 with 128 increments and 8 scans per increment was applied for 0.1 mM ^15N DC-SIGN and Langerin CRD in HBS/Ca^2+ buffer at 298 K. For screening of 650 non-fluorinated fragments of the general library against ^15N LecA, a mix of 10 compounds at 1 mM each was combined with 0.15 mM ^15N LecA in HBS/Ca^2+ buffer (20 mM HEPES pH 7.4, 150 mM NaCl, 10 mM CaCl2, 10% D2O and 100 µM sodium trimethylsilylpropanesulfonate (DSS) as internal reference, whereas the fragments with the MBP scaffolds were validated separately at 1 mM. Similarly, 9 nonfluorinated fragments from the MBP library were screened against ^15N-labeled DC-SIGN, LecA and LecB. To validate the fragment binding to proteins, we recorded ^1H-^15N HSQC and TROSY NMR of proteins in the presence of DMSO as negative control and 2 mM fragments in HBS/Ca^2+ buffer. Natural ligands were used as positive controls at 1 mM MeGal, MeFuc and 30 mM D-mannose to LecA/LecB and DC-SIGN CRD/Langerin CRD, respectively. Titration experiments with ^15N-labeled DC-SIGN CRD or LecB were recorded in HBS/Ca^2+ buffer with 30 mM CaCl2 and 0.25 to 4–8 mM malonic acid derivatives. The Kd values were calculated according to the one-site-binding model in Origin(Pro) 2020b (OriginLab Corp., USA). Ligand efficiency calculations were done according to Eq. (1) for a temperature of 298 K and 310 K for DC-SIGN CRD and LecB, respectively.1 LE=RTlnKd/HA, with the temperature T [K], the gas constant R [kcal mol^−1 K^−1], and the number of non-hydrogen atoms HA[56].
All data were processed with NMRpipe[65] and analyzed with CcpNmr analysis. For data analysis, the protein fingerprint of ^15N DC-SIGN (Table S7) or Langerin CRD was assigned as reported previously. The ^1H-^15N TROSY resonances of ^15N LecA and ^15N LecB were indexed with IDs due to a lack of protein backbone resonance assignment (Tables S8-S9). Next, resonance IDs from protein spectra were transferred to the spectra obtained in the presence of compounds in order to compare the changes in chemical shift perturbations for the fast exchange peaks. The changes in chemical shift perturbations (CSPs) were calculated according to Eq. (2):2 △δ=1/2△δH2+α△δN^2 in which δ is the difference in chemical shift (in ppm) and α is an empirical weighting factor of 0.14 for all amino acid backbone resonances. The threshold value was set based on three independent measurements of reference spectra to 0.01 ppm for LecA, LecB, DC-SIGN CRD and Langerin CRD.

## O=C(CCCc1ccc([N+](=O)[O-])cc1)NO [compound 39]
[1]
  Inhibition in FP: 4 ± 2%

## O=C(CCCc1cccs1)NO [compound 37]
[1]
  inhibition at 10000 µM: 25 ± 3%

## O=C(CCCc1ccc(O)cc1)NO [compound 41]
[1]
  Inhibition in FP: 39 ± 1%
  inhibition at 10000 µM: 27 to 39%

## NC(C(=O)NO)c1ccccc1 (stereo not shown) [compound 1]
[2]
  competition of reporter 5 from LecA (recovery of 19F peak): did not displace
[3]
  binding to 15N LecB in TROSY NMR: did not bind
[4]
  Kd: 7.2 ± 1.4 mM
[4]; ligand efficiency calculated from Kd for LecA, 310 K
  LE: 0.25 kcal mol^−1 HA^−1
[1]; read-out: Inhibition in FP, compared to MeGal, measured at 4 mM (16 h)
  inhibition at 4000 µM: 6%
[5]
  Efficiency in SPR (normalized binding response): 11.6%
[6]; 2 mM compound, 1 mM MeGal
  total % of CSPs normalized to MeGal in 15N LecA: 40%

## CN(O)C(=O)Cc1ccccc1 [compound 8]
[1]
  inhibition at 10000 µM: 20 ± 3%
[6]; 4 mM analogs of 1, 1 mM marketed hydroxamates
  binding to 15N LecA in TROSY NMR: not tolerated
